Data from patent US8703812B2, “Protein synthesis required for long-term memory is induced by PKC activation on days preceding associative learning” (Blanchette Rockefeller Neurosciences Institute, priority 2005, dated 2014).
Entries after “also recorded” stand apart in the source; their conditions may differ.

Assays:
[1] = tested on: Hermissenda Crassicornis; experiment: Pavlovian conditioning of Hermissenda (retention of conditioned response); assay type: in vivo; details: for concentration that inhibited acquisition and behavioral retention: all training conditions tested
Method: Bryostatin exposure—Specimens of Hermissenda Crassicornis were maintained in artificial sea water (ASW) at 15° for three days in perforated 50-ml conical centrifuge tubes before starting experiments. Bryostatin, purified from the marine bryozoan Bugula neritina, was dissolved in EtOH and diluted to its final concentration in ASW. […] For selected experiments lactacysteine (10 μM) or anisomycin was added to the ASW.
Bryostatin effects on Hermissenda behavior and biochemistry were produced by adding the drug to the bathing medium within an 8 cm long, 1 cm diameter test tube housing each individual animal.
Pavlovian conditioning of Hermissenda involves repeated pairings of a neutral stimulus, light, with an unconditioned stimulus, orbital shaking. (See, Lederhendler et al. (24) and Epstein et al. (6)). A rotation/shaking stimulus excites the statocyst hair cells and thereby elicits an unconditioned response: a brisk contraction of the muscular undersurface called a foot, accompanied by adherence or “clinging” to the surface that supports the foot. Before conditioning, light elicits a weakly positive phototaxis accompanied by lengthening of the foot. After sufficient light-rotation pairings, light no longer elicits phototaxis, but instead elicits a new response (24): the “clinging” and foot shortening previously elicited only by the unconditional stimulus (FIG. 1). Thus, the meaning of the unconditioned stimulus, rotation or orbital shaking, has been transferred to the conditioned stimulus and is manifested by a light-elicited foot contraction—a negative change of foot length. This conditioned response to light can last for weeks, is not produced by randomized light and rotation, is stimulus-specific, and shares the other defining characteristics of mammalian Pavlovian Conditioning.
Pavlovian conditioning of Hermissenda has well-defined training parameters that produce progressively longer-lasting retention of the learned conditioned response. Two training events (2 TE) of paired light and orbital shaking (see “Methods”), for example, induce a learned conditioned response (light-elicited foot contraction or shortening) that persists without drug treatment for approximately 7 minutes. Four to six training events (4-6 TE) induce a conditioned response that persists up to several hours, but disappears approximately by 1 day after training. Nine TE produces long-term associative memory lasting many days and often up to two weeks.

[2] = tested on: calexcitin; experiment: Calexcitin immunostaining in B-photoreceptors; assay type: in vivo, Hermissenda
Method: Following experimental treatments and testing, animals were rapidly decapitated, the central nervous systems (CNS) removed and then fixed in 4% para-formaldehyde in 20 mM Tris-buffered (pH 8) natural seawater (NSW; 0.2 μm micropore-filtered). The CNSs were then embedded in polyester wax (20), sectioned (6 μm) and immunostained using a biotinylated secondary antibody coupled to avidin-bound microperoxidase (ABC method, Vector), Aminoethylcarbazole (AEC) was used as the chromogen. The primary polyclonal antibody (designated 25U2) was raised in rabbits from the full length calexcitin protein extracted from squid optic lobes. Gray-scale intensity measures were done from digital photomicrographs on circumscribed cytoplasmic areas of the B-photoreceptors minus the same background area (non-staining neuropile).

[3] = tested on: PKC; experiment: Protein kinase C assay (histone phosphorylation) in Hermissenda nervous systems; assay type: in vivo
Method: Bryostatin exposure—Specimens of Hermissenda Crassicornis were maintained in artificial sea water (ASW) at 15° for three days in perforated 50-ml conical centrifuge tubes before starting experiments. Bryostatin, purified from the marine bryozoan Bugula neritina, was dissolved in EtOH and diluted to its final concentration in ASW. Animals were incubated with bryostatin in ASW for 4 hr, then rinsed with normal ASW. For selected experiments lactacysteine (10 μM) or anisomycin was added to the ASW.
Cells were homogenized by sonication (5 sec, 25 W) in 100 μl of 10 mM Tris-HCl pH 7.4 buffer containing 1 mM EGTA, 1 mM PMSF, and 50 mM NaF. Homogenate was transferred to a polyallomer centrifuge tube and was centrifuged at 100,000×g for 10 min at 4°. The supernatant was removed and immediately frozen on dry ice. The particulate fraction was resuspended by sonication in 100 μl of the same buffer and stored at −80°. To measure PKC, 10 μl of cytosol or particulate fraction was incubated for 15 min at 37° in the presence of 10 μM histones, 4.89 mM CaCl2, 1.2 μg/μl phosphatidyl-L-serine, 0.18 μg/μl 1,2-dioctanoyl-sn-glycerol, 10 mM MgCl2, 20 mM HEPES (pH 7.4), 0-8 mM EDTA, 4 mM EGTA, 4% glycerol, 8 μg/ml aprotinin, 8 μg/ml leupeptin, and 2 mM benzamidine. 0.5 μCi [γ^32P]ATP was added and ^32P-phosphoprotein formation was measured by adsorption onto phosphocellulose as described previously (25). This assay was used with slight adjustments for either Hermissenda nervous system homogenates or cultured mammalian neuron homogenates
Intact Hermissenda were exposed for 4 hour intervals to bryostatin (0.28 nM) on successive days under conditions described (“Behavioral Pharmacology”). Histone phosphorylation (See “Methods”) in isolated circumesophageal nervous systems was then measured in the cytosol fraction. […] (FIG. 12, 13). […] After an initial activation (via translocation), this bryostatin effect is most likely due to increased synthesis of PKC, consistent with the increased levels of calexcitin induced by bryostatin, but not directly correlated with repeated bryostatin exposure.

[4] = tested on: sAPP secretion; experiment: sAPP secretion / alpha-secretase APP processing; assay type: cell-based; details: 0.1 nM bryostatin-1
[5] = cited from earlier work
[6] = tested on: sAPP secretion; details: human fibroblasts; cited from earlier work

CCC/C=C/C=C/C(=O)O[C@H]1/C(=C/C(=O)OC)C[C@H]2C[C@H]([C@@H](C)O)OC(=O)C[C@H](O)C[C@@H]3C[C@H](OC(C)=O)C(C)(C)[C@](O)(C[C@@H]4C/C(=C/C(=O)OC)C[C@H](/C=C/C(C)(C)[C@]1(O)O2)O4)O3 [bryostatin, bryostatin-1]
retention ([1]; 2-TEs with two bryostatin exposures): more than one week | retention of behavioral conditioning tested after 4 h ([1]; 2-paired TEs, bryostatin 0.25 ng/ml from 10-min dark adaptation and 4 h thereafter): demonstrated retention of the behavioral conditioning | memory retention ([1]; 2 TE plus bryostatin, 4 hours during and after training): lasting hours; also recorded: several hours | memory retention ([1]; 4 TEs plus bryostatin): > 24 h | memory duration ([1]; 6 TE with bryostatin (only hours without)): many days | memory retention ([1]; 4 hour bryostatin on the day preceding training and on the day of 2 TE): more than one day | retention ([1]; 20 h pre-exposure to bryostatin 0.25 ng/ml, 4-paired TE): persisted | retention ([1]; 20 hr bryostatin 0.25 ng/ml exposure, 2-paired TE): ≤ 48 h | low doses that markedly enhanced memory ([1]; after 2, 4, or 6 training trials): 0.1 to 0.25 ng/mL | concentration that inhibited acquisition and behavioral retention [1]: greater than 1.0 ng/ml | concentration that inhibited acquisition and behavioral retention ([1]; listed as Bryostatin): ≥ 1.0 ng/mL | conditioned response (foot contraction) tested at 4 h ([1]; bryostatin 0.25 ng/ml before 6-TE conditioning and 4 hours thereafter): produced a positive CR | effect on retention performance ([1]; bryostatin <0.50 ng/ml, 9-paired TEs): no demonstrable effects on retention performance | memory retention versus 4 hour exposures ([1]; bryostatin exposure for 8 to 20 hours followed by 2 TE): not sufficient | behavioral retention lost after ([1]; bryostatin only 4 h, 2-paired TEs 24 hrs later): ≤ 24 h | conditioned response ([1]; randomized presentations of light and rotation, with bryostatin): produced no conditioned response | long-term retention (tested with CS alone at 4 h, then 24-h intervals) ([1]; sub-optimal 4- and 6-paired TEs, bryostatin 0.25 ng/ml from dark adaptation and for 4 hours): all demonstrated long-term retention | concentrations that augment acquisition and memory retention ([1]; sub-optimal (4 TE) training): < 0.50 ng/mL | long-term retention (LTR) post-training ([1]; three successive days of 4-h bryostatin 0.25 ng/ml, one day later 2-TEs): ≥ 96 h | long-term retention ([1]; two successive days of 4-h bryostatin 0.25 ng/ml, 2-paired TEs): at least 6 days | CE immunostaining ([2]; 24 hours after 1 bryostatin exposure for four hours, no conditioning): not elevated | CE immunostaining ([2]; 24 hours after 2 bryostatin exposures on two successive days, no conditioning): greater residual CE immunostaining | levels of calexcitin in B-photoreceptors ([2]; bryostatin alone 4-hr over each of 1, 2, and 3 days, measured 24 hours after each): progressively increased the levels of calexcitin | CE immunostaining ([2]; bryostatin plus 6 TE): comparable to that observed after 9 TE | calexcitin levels increase ([2]; paired training (6PTE) with bryostatin 0.25): greater than 4.3 × | rise in calexcitin (CE) immuno-intensity ([2]; random training (4RTE) with bryostatin 0.25): 2.0 | CE immunostaining ([2]; three 4 hour bryostatin exposures, 2 TE on subsequent day, 24 hours later): approached the levels previously observed immediately following 9 TE | calexcitin level ([2]; two 4-hr bryostatin exposures (0.25 ng/ml) on successive days, then 2-paired TEs): significantly increased calexcitin to levels associated with 9-paired TEs; also recorded: raise calexcitin levels to the amount associated with consolidated long-term memory | PKC activity, membrane fraction ([3]; 24 hours after the second of two bryostatin exposures): significantly increased over baseline | PKC activity, cytosol fraction ([3]; bryostatin 0.28 nM 4 hour on successive days, 10 minutes and 24 hours after second of two exposures): significantly increased over baseline levels | sAPP secretion [4]: dramatic increase of sAPP secretion | tolerability ([5]; 20 μg/m^2 once per week for 3 weeks): well tolerated and were not associated with myalgia or other side effects | maximum-tolerated dose ([5]; 1 hour i.v. infusion once every 2 weeks for 6 weeks): 50 μg/m^2 | maximum tolerated dose ([5]; once per week for 8 weeks): 25 μg/m^2 | myalgia reported, of all treated patients ([5]; phase II clinical trials): 10 to 87% | alpha-secretase cleavage of APP to sAPP [6]: activate the alpha-secretase
